Series [1] has as its system human platelets.
Experimental: (§1) Human platelet-rich plasma (PRP) is prepared by centrifugation at 200 g-forces for 10 min. at room temperature. Platelet poor plasma (PPP) is prepared by centrifugation at 2,000 g-forces for 10 min. PRP is exposed only to plastic laboratory ware. All experiments are completed within 3 hours of blood collection. Platelet aggregation is measured photometrically using a dual channel aggregometer (Chrono-log Corp., Haverstown, Pa. 19083). One hundred percent light transmission is defined with autologus PPP. Percent maximal change in light transmission is determined from PRP following addition of ADP (1 μM) or thrombin. Thrombin (0.2-2.0 Units/ml)-induced platelet aggregation is concentration dependent and the half-maximal concentration is used for inhibition studies. Peptide 2 (SEQ ID NO: 2) is incubated with PRP (0.45 ml) for 30 seconds prior to the addition of ADP or thrombin. Aggregation is measured in a total volume of 0.5 ml. Inhibitory responses are expressed as percent inhibition when compared to a control value. The concentration resulting in 50% inhibition of aggregation. (IC50) is calculated by simple linear regression.
(§2) Human platelet-rich plasma (PRP) is prepared by centrifugation at 200 g-forces for 10 min. room temperature. Platelet poor plasma (PPP) is prepared by centrifugation at 2,000 g-forces for 10 min. PRP is exposed only to plastic laboratory ware. All experiments are completed within 3 hours of blood collection. Platelet aggregation is measured photometrically using a Chrono-log dual channel aggregometer (Chrono-log Corp., Haverstown, Pa. 19083). One hundred percent light transmission is defined with autologus PPP. Percent maximal change in light transmission is determined from PRP following addition of ADP (1 μM) or thrombin. Thrombin (0.2-2.0 Units/ml)-induced platelet aggregation is concentration dependent and the half-maximal concentration is used for inhibition studies. Peptide 1 (SEQ ID NO: 1) is incubated with PRP (0.45 ml) for 30 seconds prior to the addition of ADP or thrombin. Aggregation is measured in a total volume of 0.5 ml. Inhibitory responses are expressed as percent inhibition when compared to a control value. The concentration resulting in 50% inhibition of aggregation (IC50) is calculated by simple linear regression.
Series [2] concerns human whole blood platelets. The settings on record: read-out: IC50 whole blood platelet aggregation, ADP (0.5 μM) and thrombin (0.025 U/ml).
Experimental: (§3) Platelet aggregation in blood is performed in saline diluted (1:2) citrated blood using a whole blood aggregomenter (Chrono-log, model 540-VS). Aliquots of diluted blood are placed in plastic cuvettes and incubated at 37° C. for 15 min. Addition of ADP (2 μM) or thrombin (0.4 U/ml) is used to induce aggregation and the change in electrical impedance is registered on a strip chart recorder. Aggregation is measured in a total blood volume of 1.0 ml. Inhibitory responses are expressed as percent inhibition when compared to a control value. The concentration resulting in 50% inhibition of aggregation (IC50) is calculated by simple linear regression.
Series [3] has as its system rat whole blood platelets. The note with it: read-out: IC50 whole blood platelet aggregation, ADP (0.5 μM) and thrombin (0.025 U/ml).
Experimental: as §3
The conditions of series [4]: dog, in vivo.
Experimental: (§4) Dogs are anesthetized with sodium pentobarbital (30 mg/kg, i.v.). The femoral artery and both femoral veins are isolated and cannulated for the recording of blood pressure (Gould P23ID, Gould Inc., Medical Products Division, Oxnard, Calif. 93030), blood sampling, and drug administration. Limb leads are placed subcutaneously for monitoring of lead II ECG. Blood pressure and ECG measurements are recorded (Gould 440 recorder, Gould Inc., Instrument Systems Division, Cleveland, Ohio 44114).
Template bleeding times are performed on the median surface of the left leg after the hair has been removed (Nair, Carter-Wallace, Inc., New York, N.Y. 10105) using a Surgicutt® bleeding time device (International Technidyne Corp., Edison, N.J. 08820). Template bleeding times are determined 60 and 30 min before administration of the drug, 15, 30, 60, 120, 180 and 240 min after drug administration.
Whole blood cell counts and analysis of the hemoglobin content are determined on a 140 μL blood sample anticoagulated with EDTA processed with a hematology analyzer (Technicon El, Miles Technicon, Tarrytown, N.Y. 10591). Samples were taken at 60 and 30 min before administration of the drug, 15, 30, 60, 120, 180 and 240 min after drug administration.
The subject of another series is dog platelets. Kind of series: Intravenous infusion in anesthetized dogs: platelet aggregation. The note with it: after 1 nmol/kg/min infusion is stopped.
A further series concerns thrombin. Kind of series: Intravenous infusion in anesthetized dogs: thrombin time and aPTT.
Series [5] concerns human platelets. The source holds these as a separate data set.
Experimental: as §1, §2
Another series deals with human plasma. Kind of series: Activated partial thromboplastin time (aPTT) in human plasma. It counts as biochemical.
The next series deals with T1, bovine thrombin (Bos taurus, UniProt P00735).
T1 construct: purchased Sigma Diagnostics, St. Louis, Mo
Kind of series: Thrombin clotting time in human plasma. It counts as biochemical.

Like-named read-outs stand apart in the source and are kept apart here. Bridge positions count the residues as written; N and C are the ends. Square brackets hold non-standard residues; d marks the D form. Ends that are not written are not given here. Peptide text beside a SMILES is read from it. Cha = N[C@@H](CC1CCCCC1)C(=O)O; Nle = CCCC[C@H](N)C(=O)O

Experimental for bovine thrombin: Activated partial thromboplastin time (aPTT) determinations are carried out using the reagents and methods of Dade Diagnostics, Inc. (Aguada, Puerto Rico 00602). Thrombin clotting times are determined by incubating 0.1 ml of rat plasma at 37° C. with 0.1 ml of 0.1M Tris buffer, pH 7.5 for 30 seconds. Coagulation is started with 0.1 ml of bovine thrombin (Sigma Diagnostics, St. Louis, Mo. 63178) solution (12 NIH units/ml). All clotting times are measured semiautomatically using a MLA-Electra 750 automatic coagualation timer, MLA, Inc. (Pleasantville, N.Y. 10570). The concentration required for doubling the clotting time (ID2) is calculated using simple linear regression.
Activated partial thromboplastin time (aPTT) determinations are carried out using the reagents and methods of Dade Diagnostics, Inc. (Aguada, Puerto Rico 0602). Thrombin clotting times are determined by incubating 0.1 ml of rat plasma at 37° C. with 0.1 ml of 0.1M Tris buffer, pH 7.5 for 30 seconds. Coagulation is started with 0.1 ml of bovine thrombin (Sigma Diagnostics, St. Louis, Mo. 63178) solution (12 NIH units/ml). All clotting times are measured semiautomatically using a MLA-Electra 750 automatic coagualation timer, MLA, Inc. (Pleasantville, N.Y. 10570). The concentration required for doubling the clotting time (ID2) is calculated using simple linear regression.
Experimental for dog platelets: as §4, §3

As for `CCCC[C@@H]1NC(=O)[C@H](CC(=O)O)NC(=O)CNC(=O)[C@H](CCCNC(=N)N)NC(=O)CNC(=O)[C@H](NC(=O)CNC(=O)[C@@H]2CCCN2C(=O)[C@H](CCCNC(=N)N)NC(=O)[C@@H]2CCCN2C(=O)[C@H](N)Cc2ccccc2)CSSC[C@H](C(=O)NCC(=O)N[C@@H](CC(=O)O)C(=O)N[C@@H](Cc2ccc(O)cc2)C(=O)N[C@@H](CCC(=O)O)C(=O)N2CCC[C@H]2C(=O)N[C@H](C(=O)N2CCC[C@H]2C(=O)N[C@@H](CCC(=O)O)C(=O)N[C@@H](CCC(=O)O)C(=O)N[C@@H](C)C(=O)N[C@@H](CC2CCCCC2)C(=O)N[C@H](CCC(=O)O)C(=O)O)[C@@H](C)CC)NC(=O)[C@@H]2CCCN2C1=O` [Peptide 1, fPRPGcGRGD(Nle)PcGDYEPIPEEA(Cha)e] (H-[dF]PRPG[dC]GRGD[Nle]P[dC]GDYEPIPEEA[Cha][dE]-OH; disulfide 6-13), the IC50 with human platelets [1] (3 h) was 11.4 µM; in series [2], 0.0029 µM; in series [3], 0.0425 µM. For the same compound, in [4], the “time after infusion ends at which blood pressure and heart rate return to baseline control values” stood at 2 h. Further, in the series on dog platelets, the “pharmacodynamic t1/2, restoration of platelet activity” value was 12.8 ± 1.1 min. The “pharmacodynamic t1/2, restoration of thrombin activity” value was 17 ± 0.1 min in the series on thrombin (after 1 hr infusion of 1 nmol/kg/min) and 26 ± 3.2 min in the series with thrombin (after 1 hr infusion of 5 nmol/kg/min).
As to `CC[C@H](C)[C@H](NC(=O)[C@@H]1CCCN1C(=O)[C@H](CCC(=O)O)NC(=O)[C@H](Cc1ccc(O)cc1)NC(=O)[C@H](CC(=O)O)NC(=O)CNC(=O)[C@H]1CSSC[C@@H](NC(=O)CNC(=O)[C@@H]2CCCN2C(=O)[C@H](CCCNC(=N)N)NC(=O)[C@@H]2CCCN2C(=O)[C@H](N)Cc2ccccc2)C(=O)NCC(=O)N[C@@H](CCCNC(=N)N)C(=O)NCC(=O)N[C@@H](CC(=O)O)C(=O)N[C@@H](Cc2ccccc2)C(=O)N2CCC[C@H]2C(=O)N1)C(=O)N1CCC[C@H]1C(=O)N[C@@H](CCC(=O)O)C(=O)N[C@@H](CCC(=O)O)C(=O)N[C@@H](C)C(=O)N[C@@H](CC1CCCCC1)C(=O)N[C@H](CCC(=O)O)C(=O)O` [Peptide 2, fPRPGcGRGDFPcGDYEPIPEEA(Cha)e] (H-[dF]PRPG[dC]GRGDFP[dC]GDYEPIPEEA[Cha][dE]-OH; disulfide 6-13), the IC50 in the series on human platelets [1] (3 h) is roughly 19 µM; with human platelets [5] (3 h) it was 0.06 ± 0.026 µM.
Taken in the same sequence, the figures for `CN[C@H](Cc1ccccc1)C(=O)N1CCC[C@H]1C(=O)N[C@@H](CCCNC(=N)N)C(=O)O` [Peptide 2d, (CH3)fPR, reference compound] were greater than 1000 µM and 0.2 µM.
For “fPRPGCGRGD(Nle)PCGDYEPIPEEAYD [Peptide 4, reference compound]”, the “anticoagulant activity (in words)” value with human plasma (aPTT and thrombin time) is recorded as “less anticoagulant activity than Peptide 2”. Further, in the series on human plasma (concentration doubling clotting time), the “ID2 aPTT” value is reported as 115 ± 24 nM. In the series with bovine thrombin (human plasma, concentration doubling clotting time), the “ID2 Thrombin Time” value amounted to 14 ± 3 nM. Moreover, the “inhibition of ADP-induced platelet aggregation (in words)” value in the series on human platelets [1] (human platelets) is on record as “approximately equivalent to Peptide 1”. Further, the IC50 is 35.9 ± 0.5 µM in the series with human platelets [1] (read-out: IC50 inhibition of platelet aggregation, ADP, human PRP, ADP-induced) and 0.408 ± 0.18 µM in the series with human platelets [5] (read-out: IC50 Thrombin, human PRP, thrombin-induced). The “fold less active than Peptide 1, thrombin-induced platelet aggregation” value in the series with human platelets [5] (human platelets) is reported as “approximately 1,000 fold”.
On to “fPRPGcvRGD(Nle)PcGDYEPIPEEA(Cha)e ([dF]PRPG[dC][dV]RGD[Nle]P[dC]GDYEPIPEEA[Cha][dE]; disulfide 6-13 (inferred)) [Peptide 11]”, for which, in the series with human plasma (ratio to Peptide 1 (ID2 27.9 nM), 1 = as active as Peptide 1), the “Relative activity vs Peptide 1: Coagulation aPTT” value was 0.37. For the same compound, the “Relative activity vs Peptide 1: Coagulation Thrombin Time” value in the series with bovine thrombin (ratio to Peptide 1 (ID2 15 nM), 1 = as active as Peptide 1) worked out at 0.86. Moreover, in the series with human platelets [5] (ratio to Peptide 1 (IC50 5.8 nM), 1 = as active as Peptide 1), the “Relative activity vs Peptide 1: Aggregation Thrombin” value was 0.13.

For the origin of these results see patent US5681925A, “Trifunctional antithrombin and antiplatelet peptides” (priority 1995, dated 1997).
